Several values for one entry are separate records, joined by “and”; a condition that tells them apart may be missing. Equal values may be shown once.
What was measured:
Assay type in all cases: cell-based
hPAR2 [1] = biological target: T1, hPAR2 (Homo sapiens, UniProt P55085); test: IP1 assay, agonist mode, 1321N1-hPAR2 cells
T1 sequence (P55085 26-397): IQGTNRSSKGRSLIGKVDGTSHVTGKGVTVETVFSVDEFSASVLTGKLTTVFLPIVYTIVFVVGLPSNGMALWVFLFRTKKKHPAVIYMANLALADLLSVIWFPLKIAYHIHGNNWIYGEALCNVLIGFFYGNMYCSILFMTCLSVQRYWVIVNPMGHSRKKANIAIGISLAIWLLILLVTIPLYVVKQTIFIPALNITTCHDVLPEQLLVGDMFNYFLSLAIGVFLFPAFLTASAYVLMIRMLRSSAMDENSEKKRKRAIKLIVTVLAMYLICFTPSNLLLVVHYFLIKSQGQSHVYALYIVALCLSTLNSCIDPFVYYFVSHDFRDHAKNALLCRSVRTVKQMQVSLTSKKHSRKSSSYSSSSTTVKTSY

hPAR2 [2] = biological target: T1, hPAR2; test: pERK1/2 assay, agonist mode, U2OS-hPAR2 cells; parameters: agonist response (Fig 2e), individual replicate values: unit not given here
PAR1 (F2R) = biological target: T2, PAR1 (F2R) (Homo sapiens, UniProt P25116); test: β-arrestin recruitment, DiscoverX profiling service, PAR1
T2 sequence (P25116 22-425): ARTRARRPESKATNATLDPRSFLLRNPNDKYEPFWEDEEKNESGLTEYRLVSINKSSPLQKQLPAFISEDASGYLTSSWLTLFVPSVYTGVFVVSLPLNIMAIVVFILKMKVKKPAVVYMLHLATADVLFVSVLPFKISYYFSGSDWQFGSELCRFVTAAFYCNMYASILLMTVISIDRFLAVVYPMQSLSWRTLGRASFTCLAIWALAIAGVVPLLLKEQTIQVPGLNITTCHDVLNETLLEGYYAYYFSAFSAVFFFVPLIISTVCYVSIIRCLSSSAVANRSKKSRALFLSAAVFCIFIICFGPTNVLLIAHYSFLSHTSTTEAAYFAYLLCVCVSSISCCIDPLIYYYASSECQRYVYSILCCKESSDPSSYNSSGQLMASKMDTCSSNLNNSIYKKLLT

parental 1321N1 cells = test: Ca^2+ flux assay, agonist mode, parental 1321N1 cells; parameters: Ca2+ response (Fig 2c), individual replicate values: unit not given here; settings: for Ca2+ response (Fig 2c), individual replicate values: control
Experimental: Cells were loaded with Fluo-8 NW calcium dye (AAT Bioquest) for 30 min at 37 °C before compounds in Hank’s balanced salt solution (HBSS, ThermoFisher Scientific) with 20 mM HEPES (ThermoFisher Scientific), 0.1% bovine serum albumin (BSA, Sigma) and 0.5% DMSO were added and simultaneously evaluated for changes in intracellular [Ca^2+] using FLIPR TETRA (Molecular Devices) to detect agonism. For each concentration, the difference between the maximum peak Ca^2+ response and baseline response is reported. […] Antagonism experiments were also carried out on 1321N1-PAR2[WT], 1321N1-PAR2[F154A], and 1321N1-PAR2[G157C] as described. Experiments with trypsin in 1321N1-hPAR2 cells were performed in the presence of 1 µM Vorapaxar (Chemtronica) to remove any interference of PAR1 activity. […] Antagonism experiments for CHO-hPAR2 and HT-29 cells were performed in 96-well plates at 30,000 cells/well. Cells were loaded with Fluo-3 AM calcium dye (Sigma-Aldrich) for 60 min at 37 °C in HBSS with 1% FBS, 0.2% pluronic acid, 20 mM HEPES and 2.5 mM probenecid prior to the addition of antagonist. The antagonist was pre-incubated for 60 min at 37 °C followed by the addition of bovine trypsin (30 nM) at EC80. Intracellular [Ca^2+] flux was measured using FLIPR TETRA (Molecular Devices) and the difference between the maximum peak Ca^2+ response and baseline response is reported.

more potent than SLIGKV-NH2, IP1 accumulation (hPAR2 [1]; 1321N1-hPAR2): 120 fold
EC50 (hPAR2 [1]; 1321N1-hPAR2 cells, mean ± s.e.m., read-out: IP1 pEC50 (converted)): 200 nM
EC50 (hPAR2 [2]; U2OS-hPAR2, mean ± s.e.m., read-out: pERK1/2 pEC50 (converted)): 39.8 nM
agonist response (Fig 2e), individual replicate values (hPAR2 [2]; [compound],M -8.33985): 2.5581 and 8.989 and 6.59 and 1.141
Max Response (PAR1 (F2R); Arrestin, Agonist format, F2R): 0%
EC50 (PAR1 (F2R); Arrestin, Agonist format, F2R, read-out: RC50 (EC50)): > 50000 nM
Max Response (PAR1 (F2R); Arrestin, Antagonist format, F2R): 0%
IC50 (PAR1 (F2R); Arrestin, Antagonist format, F2R, read-out: RC50 (IC50)): > 50000 nM
activity against PAR1 in β-arrestin-2 recruitment assay (PAR1 (F2R); DiscoverX profiling service): No AZ2429 activity was detected
Structure (SMILES): CNC(=O)[C@H]1CC[C@@H](NC(=O)[C@H](CC2CCCCC2)NC(=O)c2cn(Cc3ccccc3)nn2)c2ccccc21 [AZ2429]
agonist response (Fig 2e), individual replicate values (hPAR2 [2]; [compound],M -4.52288): 92.0141 and 74.7053 and 111.675 and 66.5866 and 60.3473 and 74.0471 and 117.965 and 130.52 and 124.805 and 98.7887 and 171.327 and 138.91
agonist response (Fig 2e), individual replicate values (hPAR2 [2]; [compound],M -5): 145.403 and 95.3612 and 122.434 and 53.1755 and 72.071 and 69.3732 and 123.833 and 115.408 and 143.854 and 198.596 and 120.076 and 126.959
agonist response (Fig 2e), individual replicate values (hPAR2 [2]; [compound],M -5.47712): 102.451 and 94.8209 and 99.914 and 62.5677 and 62.1847 and 84.7772 and 121.954 and 124.064 and 131.389 and 108.103 and 101.197 and 120.75
agonist response (Fig 2e), individual replicate values (hPAR2 [2]; [compound],M -5.95424): 89.9122 and 82.9611 and 84.3447 and 63.5614 and 54.0303 and 47.0028 and 93.3928 and 116.239 and 97.5862 and 98.4234 and 105.569 and 117.075
agonist response (Fig 2e), individual replicate values (hPAR2 [2]; [compound],M -6.43136): 89.3258 and 69.9482 and 44.5682 and 54.9685 and 62.0293 and 44.3162 and 80.2501 and 88.0999 and 54.8467 and 72.3986 and 88.607 and 61.7832
agonist response (Fig 2e), individual replicate values (hPAR2 [2]; [compound],M -6.90849): 70.3304 and 41.0432 and 36.2531 and 47.5801 and 30.25 and 29.0399 and 34.5189 and 34.3783 and 18.7041 and 36.9798 and 32.4711 and 22.2209
agonist response (Fig 2e), individual replicate values (hPAR2 [2]; [compound],M -7.38561): 20.4269 and 21.9818 and 16.3418 and 12.8089 and 11.7486 and 24.5769 and 9.704 and 15.3673 and 6.674 and 12.0051 and 3.09 and 15.3723
agonist response (Fig 2e), individual replicate values (hPAR2 [2]; [compound],M -7.86273): 4.95 and -1.995 and 15.7225 and 4.505 and 8.124 and 3.783 and 3.311 and 7.198 and -0.6009 and -4.9 and 2.6 and 2.634
Ca^2+ mobilisation in parental 1321N1 cells (parental 1321N1 cells): No Ca^2+ mobilisation could be detected
Ca2+ response (Fig 2c), individual replicate values (parental 1321N1 cells; [compound],M -4.30103): -0.222 and -3.029 and 1.6687 and -8.186
Ca2+ response (Fig 2c), individual replicate values (parental 1321N1 cells; [compound],M -4.77815): -2.571 and -2.17 and -0.3366 and -1.253
Ca2+ response (Fig 2c), individual replicate values (parental 1321N1 cells; [compound],M -5.25527): 2.7 and 1.783 and -0.795 and 0.5801
Ca2+ response (Fig 2c), individual replicate values (parental 1321N1 cells; [compound],M -5.73239): 1.6114 and 0.4655 and 2.528 and 1.21
Ca2+ response (Fig 2c), individual replicate values (parental 1321N1 cells; [compound],M -6.20952): -1.884 and -0.222 and -1.998 and 1.6114
Ca2+ response (Fig 2c), individual replicate values (parental 1321N1 cells; [compound],M -6.68664): 5.507 and 2.986 and 0.6947 and 2.299
Ca2+ response (Fig 2c), individual replicate values (parental 1321N1 cells; [compound],M -7.16376): 5.851 and 0.8093 and -0.4512 and 3.674
Ca2+ response (Fig 2c), individual replicate values (parental 1321N1 cells; [compound],M -7.64088): -0.2793 and 2.6427 and 2.471 and 0.06446
Ca2+ response (Fig 2c), individual replicate values (parental 1321N1 cells; [compound],M -8.118): -2.571 and 1.726 and 3.502 and 0.5801
Ca2+ response (Fig 2c), individual replicate values (parental 1321N1 cells; [compound],M -8.59512): -3.717 and -6.009 and -11.1079 and -4.175

Source: publication PMC7747594, “Protease-activated receptor-2 ligands reveal orthosteric and allosteric mechanisms of receptor inhibition” (Communications Biology, 2020)
